Laboratory results as given in the supplement of paper PMC10307832.

Experiments:
Assay in all cases: relative viability (nuclei count vs DMSO), 5 days (fraction); higher = more cells survive
IU1-47 + Palbociclib = compound: CC1=CC(=C(N1C2=CC=C(C=C2)Cl)C)C(=O)CN3CCCCC3 [IU1-47] + CC(=O)c1c(C)c2cnc(Nc3ccc(N4CCNCC4)cn3)nc2n(C2CCCC2)c1=O [Palbociclib] (partner 0.5 µM)
Method in brief: (§1)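 Lung cancer cell lines in 1536-well plates were dosed by pin tool the day after seeding, either with one drug alone or with a fixed anchor-drug dose plus five library-drug doses (not always all listed) in √10 steps. After 5 days, cells were fixed and their nuclei stained in one step (final 0.05% Triton X-100, 1% formaldehyde, 1 ug/ml Hoechst), then counted on 4× images. Relative viability is the nuclei count in treated wells divided by that in vehicle wells. Values are medians of duplicate plates.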

FG-4592 + Crizotinib = compound: Cc1nc(C(=O)NCC(=O)O)c(O)c2ccc(Oc3ccccc3)cc12 [FG-4592] + C[C@@H](Oc1cc(-c2cnn(C3CCNCC3)c2)cnc1N)c1c(Cl)ccc(F)c1Cl [Crizotinib] (partner 1 µM)
Method in brief: as §1

IU1-47 + Navitoclax = compound: CC1=CC(=C(N1C2=CC=C(C=C2)Cl)C)C(=O)CN3CCCCC3 [IU1-47] + CC1(C)CCC(c2ccc(Cl)cc2)=C(CN2CCN(c3ccc(C(=O)NS(=O)(=O)c4ccc(N[C@H](CCN5CCOCC5)CSc5ccccc5)c(S(=O)(=O)C(F)(F)F)c4)cc3)CC2)C1 [Navitoclax] (partner 0.5 µM)
Method in brief: as §1

FG-4592 + Linsitinib = compound: Cc1nc(C(=O)NCC(=O)O)c(O)c2ccc(Oc3ccccc3)cc12 [FG-4592] + C[C@]1(O)C[C@@H](c2nc(-c3ccc4ccc(-c5ccccc5)nc4c3)c3c(N)nccn32)C1 [Linsitinib] (partner 1 µM)
Method in brief: as §1

Cell Line	relative viability (IU1-47 + Palbociclib; first compound 0.08 µM)	relative viability (IU1-47 + Palbociclib; first compound 0.253 µM)	relative viability (IU1-47 + Palbociclib; first compound 0.8 µM)	relative viability (IU1-47 + Palbociclib; first compound 2.53 µM)	relative viability (IU1-47 + Palbociclib; first compound 8 µM)	relative viability (FG-4592 + Crizotinib; first compound 0.08 µM)	relative viability (FG-4592 + Crizotinib; first compound 0.253 µM)	relative viability (FG-4592 + Crizotinib; first compound 0.8 µM)	relative viability (FG-4592 + Crizotinib; first compound 2.53 µM)	relative viability (FG-4592 + Crizotinib; first compound 8 µM)	relative viability (IU1-47 + Navitoclax; first compound 0.08 µM)	relative viability (IU1-47 + Navitoclax; first compound 0.253 µM)	relative viability (IU1-47 + Navitoclax; first compound 0.8 µM)	relative viability (IU1-47 + Navitoclax; first compound 8 µM)	relative viability (FG-4592 + Linsitinib; first compound 0.08 µM)	relative viability (FG-4592 + Linsitinib; first compound 0.253 µM)	relative viability (FG-4592 + Linsitinib; first compound 0.8 µM)	relative viability (FG-4592 + Linsitinib; first compound 2.53 µM)	relative viability (FG-4592 + Linsitinib; first compound 8 µM)	relative viability (IU1-47 + Navitoclax; first compound 2.53 µM)
201T	0.377	0.417	0.361	0.391	0.399	1	1.01	1.05	1.02	0.974	1.23	1.2	1.21	1.22	0.943	0.963	0.897	1.08	1.02	
A549						0.631	0.736	0.87	0.831	0.826	1.23	1.27	1.21	1.1	0.476	0.549		0.546	0.588	1.26
A-427	0.488	0.521	0.536	0.556	0.499	0.801	0.899	0.923	0.933	1.01	1.04	0.993	1.04	0.926	1.06	1.05	1.06	1.14	1.1	
ABC-1	0.763	0.921	0.65		0.582	1.28		1.64	1.18	1.13					0.92		0.722	0.8	0.844	
BEN	0.54	0.452	0.448	0.497	0.512	0.729	0.745	0.743	0.803	0.594	0.073	0.0735	0.0687	0.0719	0.85	0.748	0.692	0.934	0.602	0.0707
CAL-12T	0.402	0.306	0.413	0.508	0.324	0.664	0.62	0.753	0.677	0.585	1.29	1.32	1.24	1.38	0.709	0.798	0.836	0.775	0.716	1.24
COR-L23	0.313	0.32	0.284	0.245	0.279	0.574	0.571	0.833	0.679	0.638	1.1	1.1	1.21	1.22	0.832	0.746	0.915	0.913	0.912	1.16
COR-L 105	0.479	0.449	0.399	0.388	0.438	0.785	0.578	0.77	0.898	0.723	0.896	0.809	0.865	0.68	0.897	0.738	1.12	1.08	0.997	0.81
Calu-6						0.753	0.811	0.855	0.832	0.707	1.07	1.01	0.827	0.802	0.863	0.942	0.941	0.859	0.993	0.867
ChaGo-K-1	0.96	0.915	1.05	0.897	0.819	1.12	1.09	1.14	1.09	0.942	1.15	1.15	0.895	0.625						0.889
EBC-1						0.189	0.186	0.178	0.19	0.222	0.487	0.479	0.393	0.299	0.88	0.905	0.824	0.862	0.825	0.413
EKVX	0.391	0.397	0.419		0.347	1.08	0.816	1.23	0.977	1.02	1.24	1.17	0.965	0.882	1.01	0.916	0.948	0.989	0.989	0.973
EMC-BAC-2	0.521	0.541	0.512	0.507	0.519	0.736	0.749	0.813	0.772	0.731	1.25	1.26	1.21	1.04	0.846	0.767	0.767	0.836	0.833	1.16
EPLC-272H	0.315	0.338	0.289		0.336	0.844	0.72	0.631	0.888	0.873	1.19	1.07	1.07	1.12	1.09	1.06	0.859	1.18	1.03	
H3255	0.351	0.329	0.331	0.289	0.322	0.963	0.79	0.827	0.917	1.05	0.557	0.602	0.489	0.446	0.963	0.868	0.896	1.07	0.959	0.511
HARA	0.231	0.316	0.239		0.221	1.06	0.967		1	0.977	1.16	1.19	1.19	0.998	0.955	0.881		0.996	1.03	1.2
HCC-15	0.795	0.765	0.82	0.595	0.703	0.819	0.712	0.808	0.866	0.875	0.829	0.721	0.815	0.589	0.874	0.805	0.93	0.831	0.914	0.626
HCC-44	1.02	0.95	0.996	0.993	1.01	0.754	0.798	0.878	0.805	0.82	1.14	1.01	1	0.956	0.671	0.603	0.569	0.732	0.661	0.908
